Measurements: US20080050319A1, “Benzylidene-Alpha-Dicarbonyl Compounds as Novel Uv Absorbers” (SYMRISE GMBH & CO. KG, priority 2004, published 2008)

Columns and labels:
Type in all cases: physicochemical
[1] = Photostability test with Suntester, HPLC analysis of UV filter mixtures
Protocol: Photostability tests were carried out with a Suntester from Heräus. The irradiation intensity in these was 80 W/m^2, based on the UV range of 290-400 nm. The irradiation time was 4 h in total, the photodegradation of the UV filters being measured by HPLC analyses after an irradiation time of 2 and 4 h. The irradiations of the UV filter mixtures were carried out in an isopropyl myristate solution. The percentage values relate to the value measured without irradiation (decrease in the concentration).

[2] = Solubility in cosmetic oils; details: per cent by weight
Source text: Examples of Solubility (In Per Cent By Weight)
(data in per cent by weight)

[3] = UV absorption properties (extinction); parameters: unit not given here
Source text: EXAMPLES FOR THE PREPARATION AND THE ABSORPTION PROPERTIES

[4] = 2 h, Experiment 1: 3% OMC + 1% DMDBM + 2% A1 in isopropyl myristate
[5] = 2 h, Experiment 2: 3% OMC + 1% DMDBM + 2% A2 in isopropyl myristate
[6] = 2 h, Experiment 3: 3% OMC + 1% DMDBM + 2% A3 in isopropyl myristate
[7] = 2 h, Experiment 4: 3% OMC + 1% DMDBM + 2% B1 in isopropyl myristate
[8] = 2 h, Experiment 5: 3% OMC + 1% DMDBM + 2% B2 in isopropyl myristate
[9] = 2 h, Experiment 6: 3% OMC + 1% DMDBM + 2% B3 in isopropyl myristate
[10] = 2 h irradiation, 80 W/m2, reference mixture 3% OMC + 1% DMDBM in isopropyl myristate
[11] = 4 h, Experiment 1: 3% OMC + 1% DMDBM + 2% A1 in isopropyl myristate
[12] = 4 h, Experiment 2: 3% OMC + 1% DMDBM + 2% A2 in isopropyl myristate
[13] = 4 h, Experiment 3: 3% OMC + 1% DMDBM + 2% A3 in isopropyl myristate
[14] = 4 h, Experiment 4: 3% OMC + 1% DMDBM + 2% B1 in isopropyl myristate
[15] = 4 h, Experiment 5: 3% OMC + 1% DMDBM + 2% B2 in isopropyl myristate
[16] = 4 h, Experiment 6: 3% OMC + 1% DMDBM + 2% B3 in isopropyl myristate
[17] = 4 h irradiation, 80 W/m2, reference mixture 3% OMC + 1% DMDBM in isopropyl myristate

COc1ccc(C(=O)CC(=O)c2ccc(C(C)(C)C)cc2)cc1 [DMDBM, 4-dimethylethyl-4′-methoxydibenzoylmethane]
photodegradation (decrease in the concentration) [1, 4]: 24%
photodegradation (decrease in the concentration) [1, 5]: 20%
photodegradation (decrease in the concentration) [1, 6]: 20%
photodegradation (decrease in the concentration) [1, 7]: 27%
photodegradation (decrease in the concentration) [1, 8]: 27%
photodegradation (decrease in the concentration) [1, 9]: 27%
photodegradation (decrease in the concentration) [1, 10]: 67%
photodegradation (decrease in the concentration) [1, 11]: 38%
photodegradation (decrease in the concentration) [1, 12]: 28%
photodegradation (decrease in the concentration) [1, 13]: 28%
photodegradation (decrease in the concentration) [1, 14]: 48%
photodegradation (decrease in the concentration) [1, 15]: 60%
photodegradation (decrease in the concentration) [1, 16]: 52%
photodegradation (decrease in the concentration) [1, 17]: 87%

COc1ccc(/C=C(/C(=O)OC(C)C)C(=O)c2ccccc2)cc1 [Example 1]
Solubility in Isopropyl myristate [2]: >10%
Solubility in Miglyol -812 [2]: >10%
Solubility in Witconol-TN [2]: >10%
Extinction ([3]; at 316 nm): 640

CCCOC(=O)/C(=C/c1ccc(OC)cc1)C(=O)c1ccccc1 [Example 2]
Solubility in Isopropyl myristate [2]: >10%
Solubility in Miglyol -812 [2]: >10%
Solubility in Witconol-TN [2]: >10%
Extinction ([3]; at 316 nm): 660

COc1ccc(/C=C(/C(=O)OCC(C)C)C(=O)c2ccccc2)cc1 [Example 3]
Solubility in Isopropyl myristate [2]: >20%
Solubility in Miglyol -812 [2]: >20%
Solubility in Witconol-TN [2]: >20%
Extinction ([3]; at 316 nm): 640

CCCCOC(=O)/C(=C/c1ccc(OC)cc1)C(=O)c1ccccc1 [Example 4]
Solubility in Isopropyl myristate [2]: >20%
Solubility in Miglyol -812 [2]: >20%
Solubility in Witconol-TN [2]: >20%
Extinction ([3]; at 316 nm): 660
photodegradation (decrease in the concentration) [1, 4]: 0%
photodegradation (decrease in the concentration) [1, 11]: 0%
photostability (in words) ([1]; in mixture with OMC and DMDBM, compared with the comparison measurement): outstanding photostability

COc1ccc(/C=C(/C(=O)OCCC(C)C)C(=O)c2ccccc2)cc1 [Example 5]
Solubility in Isopropyl myristate [2]: >20%
Solubility in Miglyol -812 [2]: >20%
Solubility in Witconol-TN [2]: >20%
Extinction ([3]; at 316 nm): 630

CCOC(=O)/C(=C/c1ccc(OC)cc1)C(=O)C1CCCCC1 [Example 6]
Extinction ([3]; at 316 nm): 700

CCOC(=O)/C(=C/c1ccc(C)cc1)C(=O)c1ccccc1 [Example 7]
Extinction ([3]; at 292 nm): 690

COc1ccc(/C=C(/C(C)=O)C(=O)c2ccccc2)cc1 [Example 8]
Extinction ([3]; at 323 nm, pure Z isomer): 816

CCOC(=O)/C(=C/c1ccc(OC)cc1)C(=O)c1ccc(C)cc1 [Example 9]
Extinction ([3]; at 316 nm): 660

CCOC(=O)/C(=C/c1ccc(OC)cc1)C(=O)c1ccccc1 [Example A2]
photodegradation (decrease in the concentration) [1, 6]: 0%
photodegradation (decrease in the concentration) [1, 13]: 0%

COc1ccc(/C=C(/C(C)=O)C(=O)c2ccccc2)cc1 [Example A2]
Solubility in Isopropyl myristate [2]: <10%
Solubility in Miglyol -812 [2]: <10%
Solubility in Witconol-TN [2]: <10%
photodegradation (decrease in the concentration) [1, 5]: 3%
photodegradation (decrease in the concentration) [1, 12]: 3%

CCOC(=O)/C(=C/c1ccc(OC)cc1)C(=O)c1ccccc1 [Example A3]
Solubility in Isopropyl myristate [2]: >20%
Solubility in Miglyol -812 [2]: >20%
Solubility in Witconol-TN [2]: >20%

CCOC(=O)C(=Cc1ccc(OC)cc1)C(=O)OCC [Example B2]
photodegradation (decrease in the concentration) [1, 8]: 2%
photodegradation (decrease in the concentration) [1, 15]: 7%

COc1ccc(C=C(C(C)=O)C(C)=O)cc1 [Example B3]
photodegradation (decrease in the concentration) [1, 9]: 0%
photodegradation (decrease in the concentration) [1, 16]: 8%

CCCCC(CC)COC(=O)C=Cc1ccc(OC)cc1 (stereo not drawn) [OMC, octyl methoxycinnamate]
photodegradation (decrease in the concentration) [1, 4]: 12%
photodegradation (decrease in the concentration) [1, 5]: 12%
photodegradation (decrease in the concentration) [1, 6]: 11%
photodegradation (decrease in the concentration) [1, 7]: 11%
photodegradation (decrease in the concentration) [1, 8]: 15%
photodegradation (decrease in the concentration) [1, 9]: 13%
photodegradation (decrease in the concentration) [1, 10]: 58%
photodegradation (decrease in the concentration) [1, 11]: 17%
photodegradation (decrease in the concentration) [1, 12]: 17%
photodegradation (decrease in the concentration) [1, 13]: 17%
photodegradation (decrease in the concentration) [1, 14]: 18%
photodegradation (decrease in the concentration) [1, 15]: 30%
photodegradation (decrease in the concentration) [1, 16]: 25%
photodegradation (decrease in the concentration) [1, 17]: 76%
